{
  "source": "PubChem BioAssay AID651581",
  "about": "(Sanford-Burnham Center for Chemical Genomics, 2012)",
  "key": {"[1]": {"biological_target": "Hypoxia-inducible factor 1-alpha (Homo sapiens) (UniProt Q16665)", "sequence (Q16665 whole entry, looked up)": "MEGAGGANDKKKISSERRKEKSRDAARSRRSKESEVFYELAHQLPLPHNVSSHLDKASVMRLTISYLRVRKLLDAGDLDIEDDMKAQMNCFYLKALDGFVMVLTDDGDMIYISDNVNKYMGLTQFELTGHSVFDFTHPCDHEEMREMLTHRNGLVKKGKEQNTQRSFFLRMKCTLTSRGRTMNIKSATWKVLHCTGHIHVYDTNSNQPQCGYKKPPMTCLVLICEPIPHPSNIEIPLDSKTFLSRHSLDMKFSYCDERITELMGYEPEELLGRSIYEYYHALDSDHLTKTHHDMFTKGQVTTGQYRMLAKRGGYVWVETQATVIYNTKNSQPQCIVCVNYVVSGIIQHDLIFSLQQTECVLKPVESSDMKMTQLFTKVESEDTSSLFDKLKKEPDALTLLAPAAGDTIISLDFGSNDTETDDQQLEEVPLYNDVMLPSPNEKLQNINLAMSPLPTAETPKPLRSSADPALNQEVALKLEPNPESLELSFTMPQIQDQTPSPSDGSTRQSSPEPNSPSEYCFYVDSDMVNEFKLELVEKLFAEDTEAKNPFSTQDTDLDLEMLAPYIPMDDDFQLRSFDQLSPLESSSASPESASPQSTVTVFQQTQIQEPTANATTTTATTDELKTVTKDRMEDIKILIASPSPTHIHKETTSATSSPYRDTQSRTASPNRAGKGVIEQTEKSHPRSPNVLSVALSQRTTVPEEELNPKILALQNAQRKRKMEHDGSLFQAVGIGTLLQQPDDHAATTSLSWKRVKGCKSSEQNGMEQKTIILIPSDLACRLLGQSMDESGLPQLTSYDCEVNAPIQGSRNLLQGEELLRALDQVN", "assay": "HIF-2a and HIF-1a reporter inhibition panel, dose response, selectivity assay for HIF-2a inhibitor project, cell-based, luminescence (AID 651581)", "details": "HIF-1a"}, "[2]": {"biological_target": "Endothelial PAS domain-containing protein 1 (Homo sapiens) (UniProt Q99814)", "assay": "HIF-2a and HIF-1a reporter inhibition panel, dose response, selectivity assay for HIF-2a inhibitor project, cell-based, luminescence (AID 651581)"}},
  "note": "Calls of active or inactive are those of the source. No rule for the calls is given here.",
  "data": [
    {"smiles": "CCOC(=O)Cc1csc(NC(=S)NC(=O)c2ccccc2)n1", "values": [
      {"measurement": "IC50", "setting": "[1]; mean of runs", "result": 22.1, "unit": "µM"},
      {"measurement": "IC50", "setting": "[1]; run 1", "result": 23.3, "unit": "µM"},
      {"measurement": "IC50", "setting": "[1]; run 2", "result": 20.9, "unit": "µM"},
      {"measurement": "IC50", "setting": "[2]; HIF-2a PANC, run 1", "result": 41, "unit": "µM"},
      {"measurement": "IC50", "setting": "[2]; HIF-2a PANC, run 2", "result": "< 10", "unit": "µM"},
      {"measurement": "IC50", "setting": "[2]; HIF-2a, mean of runs", "result": 3.69, "unit": "µM"},
      {"measurement": "IC50", "setting": "[2]; HIF-2a, run 1", "result": 3.72, "unit": "µM"},
      {"measurement": "IC50", "setting": "[2]; HIF-2a, run 2", "result": 3.66, "unit": "µM"}
    ]},
    {"smiles": "Cc1nc2cc(-c3cccc(F)c3)nn2c(C)c1CCC(=O)N1CCC2(CC1)OCCO2", "values": [
      {"measurement": "IC50", "setting": "[1]; mean of runs", "result": 68.8, "unit": "µM"},
      {"measurement": "IC50", "setting": "[1]; run 1", "result": 81.5, "unit": "µM"},
      {"measurement": "IC50", "setting": "[1]; run 2", "result": 56.2, "unit": "µM"},
      {"measurement": "IC50", "setting": "[2]; HIF-2a PANC, mean of runs", "result": 2.03, "unit": "µM"},
      {"measurement": "IC50", "setting": "[2]; HIF-2a PANC, run 1", "result": 2.17, "unit": "µM"},
      {"measurement": "IC50", "setting": "[2]; HIF-2a PANC, run 2", "result": 1.9, "unit": "µM"},
      {"measurement": "IC50", "setting": "[2]; HIF-2a, mean of runs", "result": 1.27, "unit": "µM"},
      {"measurement": "IC50", "setting": "[2]; HIF-2a, run 1", "result": 1.27, "unit": "µM"},
      {"measurement": "IC50", "setting": "[2]; HIF-2a, run 2", "result": 1.28, "unit": "µM"}
    ]},
    {"smiles": "O=C(O)c1cccc(CSc2nnc(COc3ccccc3)o2)c1", "values": [
      {"measurement": "IC50", "setting": "[1]; run 1", "result": "> 99", "unit": "µM"},
      {"measurement": "IC50", "setting": "[1]; run 2", "result": "> 99", "unit": "µM"},
      {"measurement": "IC50", "setting": "[2]; HIF-2a PANC, run 1", "result": "> 99", "unit": "µM"},
      {"measurement": "IC50", "setting": "[2]; HIF-2a PANC, run 2", "result": 18.8, "unit": "µM"},
      {"measurement": "IC50", "setting": "[2]; HIF-2a, mean of runs", "result": 6.36, "unit": "µM"},
      {"measurement": "IC50", "setting": "[2]; HIF-2a, run 1", "result": 6.48, "unit": "µM"},
      {"measurement": "IC50", "setting": "[2]; HIF-2a, run 2", "result": 6.23, "unit": "µM"}
    ]},
    {"smiles": "CC(=O)Nc1ccc(OS(=O)(=O)c2ccc(C)cc2C)cc1", "values": [
      {"measurement": "IC50", "setting": "[1]; mean of runs", "result": 24.9, "unit": "µM"},
      {"measurement": "IC50", "setting": "[1]; run 1", "result": 28.2, "unit": "µM"},
      {"measurement": "IC50", "setting": "[1]; run 2", "result": 21.6, "unit": "µM"},
      {"measurement": "IC50", "setting": "[2]; HIF-2a PANC, mean of runs", "result": 7.66, "unit": "µM"},
      {"measurement": "IC50", "setting": "[2]; HIF-2a PANC, run 1", "result": 5.49, "unit": "µM"},
      {"measurement": "IC50", "setting": "[2]; HIF-2a PANC, run 2", "result": 9.84, "unit": "µM"},
      {"measurement": "IC50", "setting": "[2]; HIF-2a, mean of runs", "result": 3.79, "unit": "µM"},
      {"measurement": "IC50", "setting": "[2]; HIF-2a, run 1", "result": 3.7, "unit": "µM"},
      {"measurement": "IC50", "setting": "[2]; HIF-2a, run 2", "result": 3.87, "unit": "µM"}
    ]},
    {"smiles": "CCOC(=O)c1cccc(NC(=O)/C=C/c2ccc3c(c2)OCO3)c1", "values": [
      {"measurement": "IC50", "setting": "[1]; mean of runs", "result": "inactive"},
      {"measurement": "IC50", "setting": "[1]; run 1", "result": 25.4, "unit": "µM"},
      {"measurement": "IC50", "setting": "[1]; run 2", "result": 27.5, "unit": "µM"},
      {"measurement": "IC50", "setting": "[2]; HIF-2a PANC, run 1", "result": 42.7, "unit": "µM"},
      {"measurement": "IC50", "setting": "[2]; HIF-2a PANC, run 2", "result": "> 99", "unit": "µM"},
      {"measurement": "IC50", "setting": "[2]; HIF-2a, mean of runs", "result": "inactive"},
      {"measurement": "IC50", "setting": "[2]; HIF-2a, run 1", "result": 18.6, "unit": "µM"},
      {"measurement": "IC50", "setting": "[2]; HIF-2a, run 2", "result": 14.7, "unit": "µM"}
    ]},
    {"smiles": "C/C(=N/NC(=O)c1cc(C2CC2)[nH]n1)c1cccs1", "values": [
      {"measurement": "IC50", "setting": "[1]; mean of runs", "result": "inactive"},
      {"measurement": "IC50", "setting": "[1]; run 1", "result": 24.8, "unit": "µM"},
      {"measurement": "IC50", "setting": "[1]; run 2", "result": 21.7, "unit": "µM"},
      {"measurement": "IC50", "setting": "[2]; HIF-2a PANC, run 1", "result": "> 99", "unit": "µM"},
      {"measurement": "IC50", "setting": "[2]; HIF-2a PANC, run 2", "result": "< 30", "unit": "µM"},
      {"measurement": "IC50", "setting": "[2]; HIF-2a, mean of runs", "result": "< 30 µM (inactive)"},
      {"measurement": "IC50", "setting": "[2]; HIF-2a, run 1", "result": "< 30", "unit": "µM"},
      {"measurement": "IC50", "setting": "[2]; HIF-2a, run 2", "result": "< 30", "unit": "µM"}
    ]},
    {"smiles": "Cc1c(CCC(=O)N2CCC[C@H]2C(=O)O)c(=O)oc2c(C)c3oc4c(c3cc12)CCCC4", "values": [
      {"measurement": "IC50", "setting": "[1]; mean of runs", "result": 44.7, "unit": "µM"},
      {"measurement": "IC50", "setting": "[1]; run 1", "result": 72.4, "unit": "µM"},
      {"measurement": "IC50", "setting": "[1]; run 2", "result": 17, "unit": "µM"},
      {"measurement": "IC50", "setting": "[2]; HIF-2a PANC, mean of runs", "result": 1.72, "unit": "µM"},
      {"measurement": "IC50", "setting": "[2]; HIF-2a PANC, run 1", "result": 1.8, "unit": "µM"},
      {"measurement": "IC50", "setting": "[2]; HIF-2a PANC, run 2", "result": 1.64, "unit": "µM"},
      {"measurement": "IC50", "setting": "[2]; HIF-2a, mean of runs", "result": 4.13, "unit": "µM"},
      {"measurement": "IC50", "setting": "[2]; HIF-2a, run 1", "result": 4.63, "unit": "µM"},
      {"measurement": "IC50", "setting": "[2]; HIF-2a, run 2", "result": 3.63, "unit": "µM"}
    ]},
    {"smiles": "COC(=O)COc1ccc(-c2nccc(-c3ccccn3)n2)cc1", "values": [
      {"measurement": "IC50", "setting": "[1]; mean of runs", "result": "inactive"},
      {"measurement": "IC50", "setting": "[1]; run 1", "result": 0.274, "unit": "µM"},
      {"measurement": "IC50", "setting": "[1]; run 2", "result": 0.637, "unit": "µM"},
      {"measurement": "IC50", "setting": "[2]; HIF-2a PANC, mean of runs", "result": 2.88, "unit": "µM"},
      {"measurement": "IC50", "setting": "[2]; HIF-2a PANC, run 1", "result": 3.28, "unit": "µM"},
      {"measurement": "IC50", "setting": "[2]; HIF-2a PANC, run 2", "result": 2.48, "unit": "µM"},
      {"measurement": "IC50", "setting": "[2]; HIF-2a, mean of runs", "result": 1.07, "unit": "µM"},
      {"measurement": "IC50", "setting": "[2]; HIF-2a, run 1", "result": 1.04, "unit": "µM"},
      {"measurement": "IC50", "setting": "[2]; HIF-2a, run 2", "result": 1.11, "unit": "µM"}
    ]},
    {"smiles": "N#Cc1c(NC(=O)CCCC(=O)O)sc2c1CCCCC2", "values": [
      {"measurement": "IC50", "setting": "[1]; run 1", "result": "> 99", "unit": "µM"},
      {"measurement": "IC50", "setting": "[1]; run 2", "result": "> 99", "unit": "µM"},
      {"measurement": "IC50", "setting": "[2]; HIF-2a PANC, mean of runs", "result": 0.417, "unit": "µM"},
      {"measurement": "IC50", "setting": "[2]; HIF-2a PANC, run 1", "result": 0.379, "unit": "µM"},
      {"measurement": "IC50", "setting": "[2]; HIF-2a PANC, run 2", "result": 0.455, "unit": "µM"},
      {"measurement": "IC50", "setting": "[2]; HIF-2a, run 1", "result": 51.8, "unit": "µM"},
      {"measurement": "IC50", "setting": "[2]; HIF-2a, run 2", "result": "< 0.19", "unit": "µM"}
    ]}
  ]
}
